Data: ChEMBL document CHEMBL4152189, “Incorporation of nitric oxide donor into 1,3-dioxyxanthones leads to synergistic anticancer activity” (Eur J Med Chem, 2018)

Legend:
HepG2 [1] = test: Induction of NO generation in human HepG2 cells assessed as nitrite levels at 0.66 uM after 60 hrs by Griess assay (reference value: 12.8 +/- 1.5 uM); format: functional
L02 [2] = test: Induction of NO generation in human HL-7702 cells assessed as nitrite levels at 0.66 uM after 24 hrs by Griess assay (reference value: 11.6 +/- 1.1 uM); format: functional
HepG2 [3] = test: Induction of apoptosis in human HepG2 cells assessed as increase in cleaved caspase9 level up to 0.66 uM after 24 hrs by Western blot analysis; format: functional, cell-based
L02 [4] = test: Growth inhibition of human HL-7702 cells after 24 hrs by MTT assay; format: cell-based; conditions: L02, 24 h
HepG2 [5] = test: Induction of apoptosis in human HepG2 cells assessed as late apoptotic/necrotic cells at 0.33 uM after 24 hrs by Annexin-V/propidium iodide staining-based flow cytometric analysis; format: functional
HepG2 [6] = test: Induction of NO generation in human HepG2 cells assessed as nitrite levels at 0.16 uM after 3 hrs by Griess assay (reference value: 12.8 +/- 1.5 uM); format: functional
HepG2 [7] = test: Induction of apoptosis in human HepG2 cells assessed as increase in cleaved caspase3 level up to 0.66 uM after 24 hrs by Western blot analysis; format: functional, cell-based
HepG2 [8] = test: Cell cycle arrest in human HepG2 cells assessed as accumulation at S phase at 0.66 uM after 24 hrs by propidium iodide/RNAse staining-based flow cytometric analysis; format: functional
HepG2 [9] = test: Induction of apoptosis in human HepG2 cells assessed as inhibition of p53-MDM2 interaction by measuring upregulation of p53 expression after 24 hrs by Western blot analysis; format: functional, cell-based
HepG2 [10] = test: Induction of NO generation in human HepG2 cells assessed as nitrite levels at 0.16 uM after 60 hrs by Griess assay (reference value: 12.8 +/- 1.5 uM); format: functional
HepG2 [11] = test: Induction of NO generation in human HepG2 cells assessed as nitrite levels at 0.66 uM after 6 hrs by Griess assay (reference value: 12.6 +/- 1.1 uM); format: functional
L02 [12] = test: Induction of NO generation in human HL-7702 cells assessed as nitrite levels at 0.66 uM after 12 hrs by Griess assay (reference value: 11.8 +/- 1.2 uM); format: functional
HepG2 [13] = test: Induction of NO generation in human HepG2 cells assessed as nitrite levels at 0.33 uM after 3 hrs by Griess assay (reference value: 12.8 +/- 1.5 uM); format: functional
HepG2 [14] = test: Induction of apoptosis in human HepG2 cells assessed as late apoptotic/necrotic cells at 0.66 uM after 24 hrs by Annexin-V/propidium iodide staining-based flow cytometric analysis; format: functional
HepG2 [15] = test: Induction of NO generation in human HepG2 cells assessed as nitrite levels at 0.66 uM after 1 hr by Griess assay (reference value: 12.9 +/- 1.5 uM); format: functional
HepG2 [16] = test: Induction of NO generation in human HepG2 cells assessed as nitrite levels at 0.33 uM after 60 hrs by Griess assay (reference value: 12.8 +/- 1.5 uM); format: functional

COc1cccc2oc3cc(OCCCCCO[N+](=O)[O-])cc(O)c3c(=O)c12
Activity (HepG2 [1]): 20.2 µM | Activity (L02 [2]): 19.4 µM | Activity (HepG2 [3]): Dose-dependent effect | IC50 (L02 [4]): 377 µM | Activity (HepG2 [5]): 11.8% | Activity (HepG2 [6]): 18.8 µM | Activity (HepG2 [7]): Dose-dependent effect | Activity (HepG2 [8]): 56.2% | Activity (HepG2 [9]): Dose-dependent effect | Activity (HepG2 [10]): 15.7 µM | Activity (HepG2 [11]): 31.4 µM | Activity (L02 [12]): 19.3 µM | Activity (HepG2 [13]): 23.2 µM | Activity (HepG2 [14]): 41.7% | Activity (HepG2 [15]): 21.6 µM | Activity (HepG2 [16]): 18.2 µM
